Patent US20210353564A1, “TREATMENTS FOR ZIKA VIRUS INFECTION” (Saint Louis University, priority 2018, published 2021)
Structures can show the parent of a compound that is named as a salt.

How the values were obtained:
[1] = after two years, only tamoxifen; cited from earlier work
HCV = settings: cited from earlier work
ZIKV strain PRVABC59 = assay: focus reduction test of ZIKV on Vero cells; settings: focus reduction test (FIG. 1B)
Description: Average+/−StdDev from three independent experiments done in duplicate.

Zika virus = assay: Focus Forming Assay, Vero cells drugged at T-1, T0, T1, T8, T12 relative to addition of virus; assay type: cell-based; settings: for effect on Zika virus replication (focus count): remaining virus after 39 hours; for change of EC50 with time of compound addition: addition T-1 to T12 relative to virus
Description: FIGS. 3-14. Focus Forming Assay. Data represent Vero cells drugged with SERM compounds an hour before addition of virus (T-1), upon addition of virus (T0), one hour after addition of virus (T1), eight hours after addition of virus (T8), and twelve hours after addition of virus. Each compound was screened as triplicate measurements and performed in duplicate. The data is shown as focus count (normalized to the control wells) which represents the amount of remaining virus after 39 hours as a function of log concentration.

[2] = test system: Ca2+-mediated cytotoxicity and apoptosis; settings: cited from earlier work
ERa = biological target: T1, ERa (Homo sapiens, UniProt P03372); settings: cited from earlier work
T1 sequence (P03372 1-595): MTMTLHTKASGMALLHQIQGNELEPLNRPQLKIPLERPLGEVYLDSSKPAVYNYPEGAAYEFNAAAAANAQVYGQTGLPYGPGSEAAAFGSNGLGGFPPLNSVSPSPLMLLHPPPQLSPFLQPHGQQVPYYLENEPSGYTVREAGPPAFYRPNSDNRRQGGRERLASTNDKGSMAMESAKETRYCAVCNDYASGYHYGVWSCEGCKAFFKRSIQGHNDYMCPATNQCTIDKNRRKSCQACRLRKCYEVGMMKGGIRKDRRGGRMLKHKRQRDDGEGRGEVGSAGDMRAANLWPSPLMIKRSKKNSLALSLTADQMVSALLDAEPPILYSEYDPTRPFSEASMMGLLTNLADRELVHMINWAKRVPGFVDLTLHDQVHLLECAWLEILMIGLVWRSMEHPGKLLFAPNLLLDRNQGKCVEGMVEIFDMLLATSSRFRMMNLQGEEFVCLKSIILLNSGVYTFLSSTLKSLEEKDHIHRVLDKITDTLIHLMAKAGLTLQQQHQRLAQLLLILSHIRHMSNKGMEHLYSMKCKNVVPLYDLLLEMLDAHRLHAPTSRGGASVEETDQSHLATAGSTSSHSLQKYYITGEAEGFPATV

[3] = test system: ERa-mediated gene transcription; settings: cited from earlier work
calmodulin-activated PDE = settings: cited from earlier work
[4] = average 4-year follow-up; difference not statistically significant; cited from earlier work

Row | Compound | effect on Zika virus replication (focus count) (Zika virus) | change of EC50 with time of compound addition (Zika virus) | also measured
1 | CC/C(=C(\c1ccccc1)c1ccc(OCCN(C)C)cc1)c1ccccc1 [TAM, Tamoxifen] | – | – | women with a recurrence [1]: 7.5%; effect on HCV genome replication (HCV): able to inhibit HCV genome replication; toxicity in the HCV replication study (HCV): without any apparent toxicity; antiviral activity against ZIKV grown in Vero cells (ZIKV strain PRVABC59): antiviral activity
2 | VAITVLVK [CALP-1] | increase viral growth during some of the assays | – | IC50 [2]: 52 µM
3 | COc1cc2c(cc1OC)CN(CCc1ccc(NC(=O)c3cc(OC)c(OC)cc3NC(=O)c3cnc4ccccc4c3)cc1)CC2 [Tariquidar] | prevents viral replication | EC50 does not change substantially from T-1 to T12 | –
4 | Oc1ccc([C@H]2COc3cc(O)ccc3C2)cc1 [(S)-Equol, (S)-equol] | diminishes viral replication | EC50 increases from T8 to T12 | –
5 | Methylpiperidinopyrazole [MPP] | – | – | selectivity for ERa over ERβ (ERa): 200 fold; selectivity for blocking ERa-mediated gene transcription relative to that of ERβ [3]: 1000 fold
6 | C[C@]12CC[C@@H]3c4ccc(O)cc4C[C@@H](CCCCCCCCC[S+]([O-])CCCC(F)(F)C(F)(F)F)[C@H]3[C@@H]1CC[C@@H]2O (stereo partly drawn) [ICI182780] | – | – | effect on HCV genome replication (HCV): able to inhibit HCV genome replication; toxicity in the HCV replication study (HCV): without any apparent toxicity
7 | CC/C(=C(\c1ccccc1)c1ccc(OCCN(C)C)cc1)c1ccccc1 [Tamoxifen citrate] | prevents viral replication | EC50 increases from T1 to T8 | –
8 | O=c1c(-c2ccc(O)cc2)coc2cc(O)ccc12 [Daidzein] | no effect | – | –
9 | Cl.NCCCCCCCCCCNS(=O)(=O)c1cccc2c(Cl)cccc12 [A-7] | prevents viral replication | EC50 increases from T1 to T8 | effect on Zika virus replication (focus count) (Zika virus; listed as A-7 Hydrochloride): impedes viral replication; IC50 (calmodulin-activated PDE): 3 µM
10 | C[C@H]1CCCC(=O)CCCCCc2cc(O)cc(O)c2C(=O)O1 [Zearalanone] | no effect | – | –
11 | O=c1c(-c2ccc(O)cc2)coc2cc(O)cc(O)c12 [Genistein] | no effect | – | –
12 | CCCCCCCCCCCCCC(=O)O[C@@H]1[C@@H](C)[C@@]2(O)[C@@H](C=C(CO)C[C@]3(O)C(=O)C(C)=C[C@@H]23)[C@@H]2C(C)(C)[C@]12OC(C)=O [PMA, phorbol-12-myristate-13-acetate] | diminishes viral replication | EC50 increases from T8 to T12 | –
13 | O=C(c1ccc(OCCN2CCCCC2)cc1)c1c(-c2ccc(O)cc2)sc2cc(O)ccc12 [raloxifene] | – | – | fewer blood clots than in women taking tamoxifen [4]: 29%; fewer uterine cancers than in women taking tamoxifen [4]: 36%
